These results are taken from patent US12691092B2, “Method for reducing cutaneous skin scarring by pre-emptive priming and compounds and compositions for its implementation” (SOS SCIENCE OF SKIN LTD, priority 2020, dated 2026).

One assay relates to CD31. The assay is described as follows: CD31 angiogenic immunohistochemical marker in scar biopsies. The format is in vivo, human. How it is done:
A double-blind randomized placebo-controlled trial was conducted using a temporal punch-biopsy model. The punch biopsy and topical application methodology used in the study is illustrated in FIG. 1, namely showing pre-injury pre-emptive priming (7-days), pre-injury pre-emptive priming (3-days), day of injury (immediate application on day 0), post-injury (delayed 2 weeks post injury) including biopsy time points and time of topical applications. Each group applied both placebo and topical formulations twice daily for the duration of the study until week 8, with only the starting time point differing between groups Participants were split into 4 groups (n=10 in each group) in order to compare different modes (timings) of commencement of the topical application: • Group-1: Pre-emptive Priming (7-days): pre-injury • Group-2: Pre-emptive Priming (3-days): pre-injury • Group-3: Immediate (0-day): day-of-injury • Group-4: Delayed (14-days): post-injury Clinical quantitative devices were used to objectively monitor cutaneous healing at weekly intervals and punch biopsies were performed on day 0 (uninjured skin) and at weeks 4 and 8 for protein and gene expression analyses. In the trial, topical EGCG and a placebo topical were applied twice daily for the duration of the trial until week 8 with only the starting time points differing between groups. Clinical and experimental analysis involved use of non-invasive devices as well as protein and gene studies. Excisional skin biopsies in upper arms were evaluated weekly with multiple quantitative devices over an 8-week period. […] In order to further support these findings and the clinical findings, two well-known and established angiogenic immunohistochemical markers; CD31 and VEGF-A were used. […] There was a significant difference between groups (p=0.02) at week-4.

The next assay deals with VEGF-A. The experiment in a line: VEGF-A angiogenic immunohistochemical marker in scar biopsies. The format is in vivo, human. On the procedure: A double-blind randomized placebo-controlled trial was conducted using a temporal punch-biopsy model. The punch biopsy and topical application methodology used in the study is illustrated in FIG. 1, namely showing pre-injury pre-emptive priming (7-days), pre-injury pre-emptive priming (3-days), day of injury (immediate application on day 0), post-injury (delayed 2 weeks post injury) including biopsy time points and time of topical applications. Each group applied both placebo and topical formulations twice daily for the duration of the study until week 8, with only the starting time point differing between groups Participants were split into 4 groups (n=10 in each group) in order to compare different modes (timings) of commencement of the topical application: • Group-1: Pre-emptive Priming (7-days): pre-injury • Group-2: Pre-emptive Priming (3-days): pre-injury • Group-3: Immediate (0-day): day-of-injury • Group-4: Delayed (14-days): post-injury Clinical quantitative devices were used to objectively monitor cutaneous healing at weekly intervals and punch biopsies were performed on day 0 (uninjured skin) and at weeks 4 and 8 for protein and gene expression analyses. In the trial, topical EGCG and a placebo topical were applied twice daily for the duration of the trial until week 8 with only the starting time points differing between groups. Clinical and experimental analysis involved use of non-invasive devices as well as protein and gene studies. Excisional skin biopsies in upper arms were evaluated weekly with multiple quantitative devices over an 8-week period. […] In order to further support these findings and the clinical findings, two well-known and established angiogenic immunohistochemical markers; CD31 and VEGF-A were used.

Assay [1] concerns human skin scarring model. The assay is described as follows: Viscoelasticity of scars by clinical elastin probe. The format is in vivo. How it is done:
(§1) A double-blind randomized placebo-controlled trial was conducted using a temporal punch-biopsy model. The punch biopsy and topical application methodology used in the study is illustrated in FIG. 1, namely showing pre-injury pre-emptive priming (7-days), pre-injury pre-emptive priming (3-days), day of injury (immediate application on day 0), post-injury (delayed 2 weeks post injury) including biopsy time points and time of topical applications. Each group applied both placebo and topical formulations twice daily for the duration of the study until week 8, with only the starting time point differing between groups Participants were split into 4 groups (n=10 in each group) in order to compare different modes (timings) of commencement of the topical application: • Group-1: Pre-emptive Priming (7-days): pre-injury • Group-2: Pre-emptive Priming (3-days): pre-injury • Group-3: Immediate (0-day): day-of-injury • Group-4: Delayed (14-days): post-injury Clinical quantitative devices were used to objectively monitor cutaneous healing at weekly intervals and punch biopsies were performed on day 0 (uninjured skin) and at weeks 4 and 8 for protein and gene expression analyses. In the trial, topical EGCG and a placebo topical were applied twice daily for the duration of the trial until week 8 with only the starting time points differing between groups. […]

Another assay concerns elastin. The assay is described as follows: Gene expression analysis of elastin. The format is in vivo, human. The following applies: weeks 4 and 8; significant in groups-1 to 3 at week 8 (p<0.05). On the procedure:
as §1, with “[…] Excisional skin biopsies in upper arms” for “In the trial, topical EGCG and a placebo topical”, “evaluated weekly” for “applied twice daily for the duration of the trial until week 8”, “multiple quantitative devices over an 8-week period.” for “only the starting time points differing between groups.”

For the compound `O=C(OC1Cc2c(O)cc(O)cc2OC1c1cc(O)c(O)c(O)c1)c1cc(O)c(O)c(O)c1` (single isomer, unassigned; (-)) [EGCG, (-)-epigallocatechin-3-gallate], the “Angiogenic markers in primed uninjured skin” value in the assay on CD31 (primed uninjured skin prior to injury) is recorded as “reduces angiogenic markers”. The “CD31: larger reduction in group 1 compared to group-4” value in the assay with CD31 (week 4, 7-day priming vs delayed, p=0.01) amounted to 40%. In addition, in the assay with CD31 (weeks 4 and 8, all groups, p<0.01), the “CD31 in EGCG-treated samples compared with placebo” value is “significantly down-regulated”. Moreover, the “VEGF-A in EGCG-treated samples compared to placebo” value in the assay on VEGF-A (week 4, all groups, p<0.01) was “significantly down-regulated”. In addition, in the assay on VEGF-A (week 4, 3-day priming vs delayed, p=0.01), the “VEGF-A: greater reduction in group-2 compared to group-4” value stood at 56%. The “VEGF-A: greater reduction in group-1 compared to group-4” value with VEGF-A (week 4, 7-day priming vs delayed, p=0.005) was determined as 51%. For the same compound, the “VEGF-A in EGCG-treated samples” value in the assay with VEGF-A (week 8, groups 1-3, p<0.01) was “significant reduction”. Further, the “Elasticity (viscoelasticity), EGCG-treated arms compared to placebo-treated arms” value in assay [1] (group-1 weeks 1, 7, 8, group-2 week 8, group-3 week 8, group-4 week 7) is on record as “significantly increased”. In assay [1] (week 8, p=0.029), the “Elasticity, between group comparison, group-1 vs group-4” value is listed as “significantly increased elastin more than group-4”. Also, the “Elastin gene expression, EGCG-treated samples compared to placebo” value with elastin is reported as “upregulation”.
